{"source": "patent US20130052172A1", "about": "“METHODS FOR DIAGNOSING AND TREATING CARDIAC DEFECTS” (priority 2011, published 2013)", "key": {"rats": {"tested_on": "rats", "test": "Myocardial ischemia/reperfusion by the protocol of example 3 (model not given)", "type": "in vivo, rat", "settings": "Dahl S rats, single antibiotic in drinking water (60 or 120 mg/kg/day)", "source_text": "In the following example, methods for assaying myocardial infarction in vitro and in vivo in rats as determined by ischemia/reperfusion studies are described.\n(§1) An anesthetized rat model was used for in vivo ischemia/reperfusion studies using the general surgical protocol and determination of infarct size (IS) described in “K(ATP) opener-induced delayed cardioprotection: involvement of sarcolemmal and mitochondrial K(ATP) channels, free radicals and MEK½” (Gross, E. et al., J. Mol. Cell. Cardiol. 35, 985-992, 2003), the entirety of which is incorporated herein by reference. Briefly, following anesthesia, a tracheotomy for artificial ventilation was performed, with the left common carotid artery cannulated for blood pressure and heart rate measurements. A thoracotomy was performed at the fifth intercostal space, the pericardium was excised, and a silk ligature was placed distal to the left atrial appendage that spanned to the sternal portion of the left ventricle, which included the left anterior descending coronary artery. Occlusion of the area described [area at risk (AAR)] was created by placing ends of the ligature through a polypropylene tube and fixing the snare to the epicardial surface with a hemostat. After 30 min, the hemostat was released to reperfuse the AAR. Following 2 h of reperfusion, the ligature was again occluded, and the AAR was determined by patent-blue negative staining. The heart was then excised, cross-sectioned into 4 to 5 slices, and separated into normal zone and AAR. Pieces were incubated in 1% 2,3,5-triphenyltetrazolium chloride to determine IS. The heart was then incubated overnight in 10% formaldehyde, and infarcted tissue was dissected from the AAR. IS was expressed as a percentage of the AAR (IS/AAR). Leptin (0.12 μg/kg) was administered intravenously as a bolus at 24 and 12 h before ischemia. Amino acids were administered intravenously as a bolus at 24 and 12 hours before ischemia or dissolved in the drinking water and given 48 hours before ischemia.\n(§2) For in vitro ischemia/reperfusion studies, hearts were perfused retrogradely, as described previously in Baker, J. et al. (Am. J. Physiol. Heart Circ. Physiol., 2000), the entirety of which is incorporated herein by reference. Briefly, hearts were perfused with modified Krebs-Henseleit buffer (120 mM NaCl, 25 mM NaHCO3, 4.7 mM KCl, 1.2 mM KH2PO4, 1.20 mM MgSO4, 11 mM glucose, and 1.8 mM CaCl2) bubbled with 95% O2-5% CO2 for a 40-minute stabilization period and subjected to 25 minutes of global no-flow ischemia, followed by 180 minutes of reperfusion. Before use, all perfusion fluids were filtered through cellulose acetate membranes with a pore size of 5.0 μm to remove particulate matter. Hearts were kept in temperature-controlled chambers to maintain myocardial temperature at 37° C. A balloon connected to a pressure transducer was inserted into the left ventricle to monitor cardiac function. For some experiments, hearts were stabilized for 25 minutes and then perfused with vancomycin or a mixture of antibiotics for 15 minutes before ischemia/reperfusion. During the initial 40 minute reperfusion period, recovery of mechanical function was measured as left ventricular developed pressure (LVDP) under steady-state conditions and expressed as a percentage of preischemic LVDP. At the end of the 3 hour reperfusion period, hearts were processed and stained with 2,3,5-triphenyltetrazolium chloride dye for IS determination."}, "isolated hearts": {"tested_on": "isolated hearts", "test": "In vitro global ischemia/reperfusion of isolated perfused hearts, infarct size and recovery of LVDP", "set-up": "species or system rat", "settings": "for effect of inhibitor alone on cardioprotection: inhibitor perfused prior to ischemia/reperfusion, no vancomycin", "procedure": "as §2"}, "leptin": {"tested_on": "leptin", "test": "Plasma cytokine analysis (leptin)", "type": "in vivo, rat", "settings": "Dahl S rats fed 15 ml/rat/d for 14 d, with or without leptin", "procedure": "The concentration of cytokines in blood of rats treated with vancomycin was quantified to identify antibiotic-induced changes. […] Blood samples were kept on ice for 30 min and then centrifuged at 1000 g for 10 min at 4° C. to obtain plasma. Plasma samples were then analyzed to determine the concentration of 23 cytokines (Eve Technologies, Calgary, AB, Canada). Antibiotic was administered continuously via drinking water as described in example 1."}, "rat heart": {"tested_on": "rat heart", "settings": "pharmacologic preconditioning (Baker 2007, 2008); cited from earlier work"}, "Dahl S rats": {"tested_on": "Dahl S rats", "test": "In vivo regional myocardial ischemia/reperfusion, infarct size (IS/AAR)", "set-up": "species or system rat", "settings": "vancomycin 15 mg/kg/day for 72 hours, thrombopoietin i.v. 15 minutes prior to ischemia", "source_text": "as §1"}}, "note": "Entries after “also recorded” stand apart in the source; their conditions may differ. Positions of bridges follow the written chain, without caps; N, C: chain ends. Non-standard residues stand in square brackets, D forms with d. Residues, ends and D or L forms follow the SMILES beside them. *: point of attachment. Ileψ(thiazoline)Cys = CC[C@H](C)[C@H](N)C1=N[C@H](C(=O)*)CS1; dOrn = NCCC[C@@H](N)C(=O)O", "data": [{"compound": "polymyxin B", "values": [{"measurement": "effect on myocardial infarct size", "setting": "rats", "value": "did not induce protection"}]}, {"compound": "neomycin", "values": [{"measurement": "effect on myocardial infarct size", "setting": "rats", "value": "reduce myocardial infarct size"}]}, {"compound": "COc1cccc(-c2cc(=O)c3ccccc3o2)c1N", "note": "[PD98059]", "values": [{"measurement": "effect of inhibitor alone on cardioprotection", "setting": "isolated hearts", "value": "no effect on cardioprotection"}, {"measurement": "effect on ability of vancomycin to reduce myocardial necrosis and enhance ventricular function", "setting": "isolated hearts; p42/44 MAPK inhibitor 10 μM perfused prior to ischemia/reperfusion", "value": "abrogated the ability of vancomycin to reduce myocardial necrosis and to enhance ventricular function"}]}, {"compound": "leptin: 16-kDa, 167-aa polypeptide synthesized and secreted into the circulation primarily by white adipocytes", "values": [{"measurement": "effect on IS / myocardial infarction", "setting": "isolated hearts; Dahl S rats fed 15 ml/rat/d for 14 d, with or without leptin 0.12 μg/kg", "value": "no effect on IS"}, {"measurement": "effect of leptin in the absence of vancomycin pretreatment", "setting": "isolated hearts; leptin 0.12 μg/kg i.v. at 24 and 12 h before ischemia/reperfusion", "value": "had no effect"}, {"measurement": "effect on probiotic juice-induced cardioprotection", "setting": "isolated hearts; leptin 0.12 μg/kg i.v. at 24 and 12 h before ischemia/reperfusion, probiotic juice-fed rats", "value": "abolished probiotic juice-induced cardioprotection; also recorded: reversed"}, {"measurement": "effect on decrease in IS and increase in recovery of LVDP conferred by vancomycin", "setting": "isolated hearts; leptin 0.12 μg/kg i.v. at 24 and 12 h before ischemia/reperfusion, vancomycin-treated rats", "value": "abolished the decrease in IS and increase in recovery of LVDP conferred by vancomycin treatment; also recorded: reversed cardioprotection by vancomycin"}, {"measurement": "effect on leptin levels in blood", "setting": "leptin", "value": "no effect on leptin levels"}]}, {"compound": "C[S+]([O-])c1ccc(-c2nc(-c3ccncc3)c(-c3ccc(F)cc3)[nH]2)cc1", "note": "(centres unmarked) [SB 203580]", "values": [{"measurement": "effect of inhibitor alone on cardioprotection", "setting": "isolated hearts", "value": "no effect on cardioprotection"}, {"measurement": "effect on ability of vancomycin to reduce myocardial necrosis and enhance ventricular function", "setting": "isolated hearts; p38 MAPK inhibitor 15 μM perfused prior to ischemia/reperfusion", "value": "abolished the ability of vancomycin to reduce myocardial necrosis and to enhance ventricular function"}]}, {"compound": "N#C/C(=C/c1ccc(O)c(O)c1)C(=O)NCc1ccccc1", "note": "[AG-490]", "values": [{"measurement": "effect on ability of vancomycin to reduce myocardial necrosis and enhance ventricular function", "setting": "isolated hearts; JAK-2 inhibitor 1 μM perfused prior to ischemia/reperfusion, hearts of vancomycin-treated rats", "value": "partially abolished the ability of vancomycin to reduce myocardial necrosis and to enhance ventricular function"}, {"measurement": "effect of inhibitor alone on cardioprotection", "setting": "isolated hearts", "value": "no effect on cardioprotection"}]}, {"compound": "erythropoietin: pharmacologic preconditioning agent, cited from Baker 2007 (darbepoetin alfa paper)", "values": [{"measurement": "reduction in IS", "setting": "rat heart", "value": 39, "unit": "%"}]}, {"compound": "[H]/N=C(/N)N[C@H]1[C@H](O)[C@@H](O)[C@H](O[C@@H]2O[C@@H](C)[C@](O)(C=O)[C@H]2O[C@@H]2O[C@@H](CO)[C@H](O)[C@@H](O)[C@@H]2NC)[C@@H](N/C(N)=N\\[H])[C@@H]1O", "note": "[streptomycin]", "values": [{"measurement": "effect on myocardial infarct size", "setting": "rats", "value": "reduce myocardial infarct size"}]}, {"compound": "CC[C@H](C)[C@H](N)C1=N[C@H](C(=O)N[C@@H](CC(C)C)C(=O)N[C@H](CCC(=O)O)C(=O)N[C@H](C(=O)N[C@H]2CCCCNC(=O)[C@H](CC(N)=O)NC(=O)[C@@H](CC(=O)O)NC(=O)[C@H](Cc3cnc[nH]3)NC(=O)[C@@H](Cc3ccccc3)NC(=O)[C@H]([C@@H](C)CC)NC(=O)[C@@H](CCCN)NC2=O)[C@@H](C)CC)CS1", "note": "[bacitracin] ({Ileψ(thiazoline)Cys}-L[dE]IK[dOrn]I[dF]H[dD]N; lactam 4-C)", "values": [{"measurement": "effect on myocardial infarct size", "setting": "rats", "value": "did not induce protection"}]}, {"compound": "COc1ccc(Cl)cc1C(=O)NCCc1ccc(S(=O)(=O)NC(=O)NC2CCCCC2)cc1", "note": "[Glibenclamide, glibenclamide]", "values": [{"measurement": "effect on ability of vancomycin to reduce myocardial necrosis and enhance ventricular function", "setting": "isolated hearts; KATP channel blocker 3 μM perfused prior to ischemia/reperfusion", "value": "abolished the ability of vancomycin to reduce myocardial necrosis and to enhance ventricular function"}, {"measurement": "effect of inhibitor alone on cardioprotection", "setting": "isolated hearts", "value": "no effect on cardioprotection"}]}, {"compound": "thrombopoietin: agent of classical pharmacologic preconditioning; human thrombopoietin (Baker 2008)", "values": [{"measurement": "decrease in infarct size", "setting": "Dahl S rats", "value": 25, "unit": "%"}, {"measurement": "reduction in IS", "setting": "rat heart", "value": 34, "unit": "%"}]}]}
